Tested on: osteoclast formation
Experiment: Inhibition rate of furan derivatives versus osteoclast formation (TRAP staining)
Assay type: cell-based, mice
Conditions: TRAP-positive multinucleated cells, untreated control set as 100%
Experimental: First, bone marrow cells were isolated, as follow. After sacrificing 7-9 week female mice by cervical dislocation, femur and tibia were excised aseptically while removing attached soft tissues. After cutting both ends of long bones, 1 ml of an enzyme solution, containing 0.1% collagenase (Gibco), 0.05% trypsin and 0.5 mM EDTA (Gibco), was injected to the bone marrow cavity at one end using a syringe with a 26-guage needle, and bone marrow was then collected. After shaking the recovered bone marrow for 30 min, bone marrow cells were collected, and cultured in α-minimum essential medium (α-MEM) supplemented with 10% FBS for 24 hrs. Then, non-adherent cells were collected, which are osteoclast pregenitors, aliquotted onto culture plates at a density of 2×10^5 cells per well, and cultured for 8 days in α-MEM supplemented with 20 ng/ml of macrophage-colony stimulating factor (M-CSF, Peprotech, USA) and 30 ng/ml RANKL (Peprotech, USA). During the 8 days of culturing, the cells were treated with the Compound 1. Thereafter, osteoclast formation was investigated by fixing the cultured cells and then carrying out TRAP staining, as described in the following Experimental Example 2.2. In addition, resorption activity of osteoclasts was investigated by measuring the absorption area after removing osteoclasts in cultures in calcium phosphate-coated plates, as described in Experimental Example 2.3, below.
After cell culture, the adherent cells were washed with PBS, and TRAP staining was performed, as follows. After being fixed with citrate-acetate-formaldehyde for 5 min, the cells were incubated for 1 hr in acetate buffer (prewarmed at 37° C., pH 5.0) containing naphthol AS-BI phosphate, fast Garnet GBC and 7 mM tartrate buffer (pH 5.0). TRAP-positive multinucleated cells having 3 or more nuclei were considered as osteoclasts.
Osteoclast pregenitor cells were isolated, and their differentiation to mature osteoclasts was induced, according to the same method as in the Experimental Example 2-1, while treated with each of the furan derivatives of the present invention. According to the same method as in the Experimental Example 2-2, TRAP staining performed, and TRAP-positive multinucleated cells were counted. An inhibition rate of each furan derivative against osteoclast formation was expressed as percentage, wherein the number of stained cells in a control not treated the furan derivative was arbitrarily set as 100% (Tables 14 to 16).

SMILES | Inhibition rate against osteoclast formation, % (0.1 μM) [%] | Inhibition rate against osteoclast formation, % (1 μM) [%] | Inhibition rate against osteoclast formation, % (10 μM) [%]
COC(=O)c1ccc(COc2ccccc2[N+](=O)[O-])o1 [Compound 67] | 0 | 0 | –
O=Cc1ccc(COC(=O)Cc2c(F)cccc2F)o1 [Compound 33] | 0 | 3.3 | 50
CCc1ccc(OCc2ccc(C(=O)Nc3cc(C)cc(C)c3)o2)cc1 [Compound 169] | 0 | 0 | –
O=C(O)c1ccc(COc2ccc(F)cc2)o1 [Compound 102] | 0 | 0 | –
O=C(Nc1ccc(Br)cc1)c1ccc(COc2ccc(I)cc2)o1 [Compound 146] | 0 | 0 | –
CCCc1ccc(OCc2ccc(C(=O)Nc3cc(Cl)ccc3Cl)o2)cc1 [Compound 170] | 0 | 0 | –
CC(C)(C)NC(=O)c1ccc(COc2ccccc2Br)o1 [Compound 129] | 0 | 0 | 2.2
COC(=O)c1ccc(CN(C)C)o1 [Compound 85] | 0 | 0 | –
COC(=O)c1ccc(COc2ccc(Cl)c(C)c2)o1 [Compound 75] | 0 | 0 | 0.78
O=Cc1ccc(COC(=O)Nc2cccc(Cl)c2)o1 [Compound 49] | 0 | 10 | 0
CC(=O)c1ccc(NC(=O)c2ccc(COc3cccc4ccccc34)o2)cc1 [Compound 160] | 0 | 0 | –
CC(C)(C)c1ccc(OCc2ccc(C(=O)NC3CCCCC3)o2)cc1 [Compound 134] | 0 | 0 | –
COC(=O)c1ccc(C)c(NC(=O)c2ccc(COc3ccc(I)cc3)o2)c1 [Compound 152] | – | 0.08 | –
CCCc1ccc(OCc2ccc(C(=O)Nc3ccc(F)cc3F)o2)c(OC)c1 [Compound 176] | 0 | 0 | –
O=C(Nc1cc(C(F)(F)F)ccc1Cl)c1ccc(COc2ccc(Cl)cc2)o1 [Compound 181] | 0 | 0 | –
O=C(Nc1cc(F)ccc1F)c1ccc(COc2ccccc2Cl)o1 [Compound 161] | 0 | 0 | –
O=Cc1ccc(COC(=O)Nc2ccc(Br)cc2)o1 [Compound 50] | 0 | 10 | 0
O=C(Nc1ccc(F)cc1)c1ccc(COc2cccc(Cl)c2)o1 [Compound 141] | 0 | 0 | –
COc1cc([N+](=O)[O-])ccc1NC(=O)c1ccc(COc2ccc(Cl)cc2)o1 [Compound 182] | 0 | 0 | –
COc1ccc(NC(=O)c2ccc(COc3cc(Cl)ccc3Cl)o2)c(OC)c1 [Compound 145] | 0 | – | –
O=C(Nc1cccc([N+](=O)[O-])c1)c1ccc(COc2ccc(I)cc2)o1 [Compound 191] | 0 | 0 | –
Cc1cc(OCc2ccc(C(=O)Nc3ccc(Cl)cc3)o2)ccc1Cl [Compound 173] | 0 | 0 | –
CCCCNC(=O)OCc1ccc(C=O)o1 [Compound 53] | 0 | 10 | –

Reference: patent US20080221205A1, “FURAN DERIVATIVES FOR PREVENTING AND CURING OSTEOPOROSIS AND PHARMACEUTICAL COMPOSITIONS CONTAINING THE SAME” (priority 2002, published 2008)
